According to patent US7767804B2, “Compositions and methods for using a solid support to purify RNA” (Qiagen North American Holdings, Inc., priority 2001, dated 2010):
Read-outs that look alike come from different tables or passages of the source.

Key:
[1] = From the text: Much time and effort was spent screening detergents that would adequately lyse cells and also stay soluble in the Lysing/Binding Solution of the present invention. The Tween, Triton, Tergitol, Nonidet and Igepal family of detergents were examined along with a number of non-ionic detergent-like compounds.
[2] = cited from earlier work; for Type of Heat: heat of aqueous solution; for Heat of Aqueous Solution: tabulated, Handbook of Chemistry and Physics
[3] = data extrapolated to 20° C. from tabulated data in Handbook of Chemistry and Physics, cited from earlier work
[4] = approximate maximum solubility in Wash I Solution containing 55% ethanol
[5] = pH 8.8
RNase activity = RNase activity with LiCl Wash I Solution, detected as degraded RNA in the final eluted RNA product; format: biochemical
From the text: For cesium, ammonium, sodium and potassium chloride salts, the maximum solubilities obtained in 55% ethanol were about 2.5 M, 2 M, 1.5 M, and <1 M, respectively. […] It is likely that RNase activity would be detected using the LiCl and LiBr salts as well, at least some proportion of the time, and depending upon the tissue from which the RNA is purified. […] This is probably because solubility definitions are somewhat vague for predicted alcohol solubilities, and the Wash I Solution used in this experiment contained a mixture of water and ethanol, rather than a pure alcohol solution.

Structure (SMILES)	Type of Heat [2]	Heat of Aqueous Solution [2]	further results
CCCCCCCCCCCC(=O)OCCOCCOCCOCCOCCOCCOCCOCCOCCOCCOCCOCCOCCOCCOCCOCCOCCOCCOCCOCCOCC(OCCOCCOCCOCCOCCOCCOCCOCCOCCOCCOCCOCCOCCOCCOCCOCCOCCOCCOCCOCCO)C1OCC(OCCOCCOCCOCCOCCOCCOCCOCCOCCOCCOCCOCCOCCOCCOCCOCCOCCOCCOCCOCCO)C1OCCOCCOCCOCCOCCOCCOCCOCCOCCOCCOCCOCCOCCOCCOCCOCCOCCOCCOCCOCCO (stereo not drawn) [Tween-20, polyoxylene sorbitan monolaurate]			Stability/solubility of detergent in the Lysing/Binding Solution over time [1]: saponified or degraded over time and fell out of solution
CCOCCOCCO [DGME, Diethyleneglycolmonoethylether]			Stability/solubility of detergent in the Lysing/Binding Solution over time [1]: stays in solution
Cl.N [NH4Cl, ammonium chloride]	endothermic	+3.53 kcal/mole	
[Cl-].[Cs+] [CsCl, cesium chloride]	endothermic	+4.25 kcal/mole	
[Cl-].[Na+] [NaCl, sodium chloride]	endothermic	+0.93 kcal/mole	
[Cl-].[K+] [KCl, potassium chloride]	endothermic	+4.12 kcal/mole	Reported Solubility in Water [3]: 3000 mM; Reported Solubility in Water ([3]; listed as potassium chloride): approximately 3 M; Measured Solubility in Wash I [4]: < 1000 mM; Measured Solubility in Wash I ([4]; listed as potassium chloride): < 1000 mM
[Br-].[Li+] [LiBr, lithium bromide]	exothermic	-11.67 kcal/mol	
[Cl-].[Li+] [LiCl, lithium chloride]	exothermic	-8.85 kcal/mol	Measured Solubility in Lysis/Binding [5]: at least 4M; RNase activity detected as degraded RNA in the final eluted RNA product (RNase activity; 2.5 M LiCl Wash I Solution): RNase activity was detected at least half of the time; LiCl needed in the Wash I Solution in order to eliminate the RNase activity (RNase activity; Wash I Solution): at least 5 M
